# Target: PI3Kδ (Homo sapiens (Human), UniProt O00329)
# Assay: Enzymatic activity of PI3K isoforms, TR-FRET assay (PI3Kδ)
# Format: biochemical
# Settings: 2× Km ATP, geometric mean if more than one value
# Procedure: Enzymatic activity of the class I PI3K isoforms in the presence of the compounds of Table 1 and Compounds X, Y and Z was measured using a time-resolved fluorescence resonance energy transfer (TR-FRET) assay. The TR-FRET assay was used to monitor formation of the product 3,4,5-inositol triphosphate molecule (PIP3) as it competed with fluorescently labeled PIP3 for binding to the GRP-1 pleckstrin homology domain protein. An increase in […] product results in a decrease in TR-FRET signal as the labeled fluorophore is displaced from the GRP-1 protein binding site.
# Class I PI3K isoforms were expressed and purified as heterodimeric recombinant proteins. All assay reagents and buffers for the TR-FRET assay were purchased from Millipore. PI3K isoforms were assayed under initial rate conditions in the presence of 25 mM Hepes (pH 7.4), and 2× Km ATP (75-500 μM), 2 μM PIP2, 5% glycerol, 5 mM MgCl2, 50 mM NaCl, 0.05% (v/v) Chaps, 1 mM dithiothreitol, 1% (v/v) DMSO at the following concentrations for each isoforms: PI3Kα, PI3Kβ, and PI3Kδ between 25 and 50 pM, and PI3Kγ at 2 nM. After an assay reaction time of 30 minutes at 25° C., reactions were terminated with a final concentration of 10 mM EDTA, 10 nM labeled-PIP3, and 35 nM Europium labeled GRP-1 detector protein before reading TR-FRET on an Envision plate reader (Ex: 340 nm; Em: 615/665 nm; […] delay and 500 μs read window).
# Data were normalized based on positive ([…] wortmanin) and negative (DMSO) controls. α, β, δ, and γ IC50 values were calculated from the fit of the dose-response curves to a four-parameter equation. All IC50 values represent geometric mean values if more than one value was obtained. IC50 values were reported in units of nM.
# Chain of PI3Kδ (O00329 whole entry, canonical isoform): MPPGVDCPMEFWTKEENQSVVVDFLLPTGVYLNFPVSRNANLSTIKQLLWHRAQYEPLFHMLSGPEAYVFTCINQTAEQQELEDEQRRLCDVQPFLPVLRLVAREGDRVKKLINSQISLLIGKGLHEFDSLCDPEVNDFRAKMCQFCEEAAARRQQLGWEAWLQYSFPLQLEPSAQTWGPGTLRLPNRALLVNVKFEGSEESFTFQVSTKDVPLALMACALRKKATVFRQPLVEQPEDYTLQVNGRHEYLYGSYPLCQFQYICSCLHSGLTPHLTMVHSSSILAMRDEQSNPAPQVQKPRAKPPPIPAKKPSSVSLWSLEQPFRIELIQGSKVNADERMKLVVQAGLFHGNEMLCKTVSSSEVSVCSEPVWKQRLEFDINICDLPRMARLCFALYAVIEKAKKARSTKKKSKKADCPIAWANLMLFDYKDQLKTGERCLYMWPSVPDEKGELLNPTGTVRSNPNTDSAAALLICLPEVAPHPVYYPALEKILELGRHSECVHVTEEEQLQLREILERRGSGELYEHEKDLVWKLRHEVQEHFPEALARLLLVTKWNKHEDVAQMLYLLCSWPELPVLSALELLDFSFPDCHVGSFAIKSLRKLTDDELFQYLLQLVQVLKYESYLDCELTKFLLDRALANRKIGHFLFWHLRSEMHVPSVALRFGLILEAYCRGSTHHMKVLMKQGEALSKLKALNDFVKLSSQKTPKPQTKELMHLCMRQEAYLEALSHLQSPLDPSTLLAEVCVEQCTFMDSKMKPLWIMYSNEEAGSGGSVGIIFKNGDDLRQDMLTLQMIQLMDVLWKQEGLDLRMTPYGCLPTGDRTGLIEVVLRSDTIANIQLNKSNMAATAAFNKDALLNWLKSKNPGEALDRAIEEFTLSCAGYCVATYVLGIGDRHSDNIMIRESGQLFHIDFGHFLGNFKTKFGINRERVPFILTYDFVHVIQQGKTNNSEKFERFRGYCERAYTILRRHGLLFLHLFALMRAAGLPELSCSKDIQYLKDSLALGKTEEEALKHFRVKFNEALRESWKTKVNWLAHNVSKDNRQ
# Chain of PI3Kδ (P27986 whole entry partner, canonical isoform): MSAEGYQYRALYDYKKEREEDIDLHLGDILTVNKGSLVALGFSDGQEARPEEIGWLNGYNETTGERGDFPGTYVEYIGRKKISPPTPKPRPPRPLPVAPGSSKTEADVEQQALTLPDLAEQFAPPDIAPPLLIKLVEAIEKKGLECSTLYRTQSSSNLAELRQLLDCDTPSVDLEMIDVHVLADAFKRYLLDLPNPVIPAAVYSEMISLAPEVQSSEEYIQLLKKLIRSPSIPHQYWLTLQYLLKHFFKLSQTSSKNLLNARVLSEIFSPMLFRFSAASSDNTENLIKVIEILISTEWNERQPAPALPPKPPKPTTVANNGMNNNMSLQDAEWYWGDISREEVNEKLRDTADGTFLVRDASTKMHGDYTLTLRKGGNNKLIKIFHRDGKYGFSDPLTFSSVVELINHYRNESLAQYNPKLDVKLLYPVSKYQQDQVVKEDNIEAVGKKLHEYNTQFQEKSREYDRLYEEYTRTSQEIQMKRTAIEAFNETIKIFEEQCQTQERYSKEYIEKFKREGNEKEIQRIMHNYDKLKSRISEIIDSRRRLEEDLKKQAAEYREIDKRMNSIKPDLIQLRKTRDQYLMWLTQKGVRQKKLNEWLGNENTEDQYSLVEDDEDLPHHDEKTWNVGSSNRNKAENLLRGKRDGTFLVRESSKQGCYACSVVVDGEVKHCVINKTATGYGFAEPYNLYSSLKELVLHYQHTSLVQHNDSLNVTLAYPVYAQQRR
row,SMILES,IC50
1,"Cc1ncc(F)cc1-n1c([C@H](C)Nc2nc(N)nc(N)c2C#N)nc2cccc(Cl)c2c1=O (atropisomer, axis not shown) [Compound 44, (S)-2,4-diamino-6-(1-(5-chloro-3-(5-fluoro-2-methylpyridin-3-yl)-4-oxo-3,4-dihydroquinazolin-2-yl)ethylamino)pyrimidine-5-carbonitrile]",0.034 µM
2,"C[C@H](Nc1nc(N)nc(N)c1Cl)c1nc2cccc(S(C)(=O)=O)c2c(=O)n1-c1cccnc1 [Compound 49, (S)-2-(1-((2,6-diamino-5-chloropyrimidin-4-yl)amino)ethyl)-5-(methylsulfonyl)-3-(pyridin-3-yl)quinazolin-4(3H)-one]",0.067 µM
3,"C[C@H](Nc1nc(N)nc(N)c1Cl)c1nc2cccc(Cl)c2c(=O)n1-c1cncc(F)c1 [Compound 51, (S)-5-Chloro-2-(1-((2,6-diamino-5-chloropyrimidin-4-yl)amino)ethyl)-3-(5-fluoropyridin-3-yl)quinazolin-4(3h)-one]",0.007 µM
4,"N#Cc1c(N)nc(N)nc1N[C@H](c1nc2c(C#N)cc(F)cc2c(=O)n1-c1cncc(F)c1)C1CC1 [Compound 56, (S)-2-(Cyclopropyl((2,6-diamino-5-cyanopyrimidin-4-yl)amino)methyl)-6-fluoro-3-(5-fluoropyridin-3-yl)-4-oxo-3,4-dihydroquinazoline-8-carbonitrile]",0.03 µM
5,"C[C@H](Nc1nc(N)nc(N)c1Cl)c1nc2cccc(Cl)c2c(=O)n1-c1cccnc1 [Compound 53, (S)-5-Chloro-2-(1-((2,6-diamino-5-chloropyrimidin-4-yl)amino)ethyl)-3-(pyridin-3-yl)quinazolin-4(3H)-on]",0.004 µM
6,"C[C@H](Nc1nc(N)nc(N)c1C(N)=O)c1nc2cccc(Cl)c2c(=O)n1-c1cccnc1 [Compound 50, (S)-2,4-Diamino-6-((1-(5-chloro-4-oxo-3-(pyridin-3-yl)-3,4-dihydroquinazolin-2-yl)ethyl)amino)pyrimidine-5-carboxamide]",0.002 µM
7,"C[C@H](Nc1nc(N)nc(N)c1C#N)c1nc2c(C#N)cc(F)cc2c(=O)n1-c1cccnc1 [Compound 54, (S)-2-(1-((2,6-Diamino-5-cyanopyrimidin-4-yl)amino)ethyl)-6-fluoro-4-oxo-3-(pyridin-3-yl)-3,4-dihydroquinazoline-8-carbonitrile]",0.01 µM
8,"CC(C)C[C@H](Nc1nc(N)nc(N)c1C#N)c1nc2cccc(Cl)c2c(=O)n1-c1cncc(F)c1 [Compound 57, (S)-2,4-Diamino-6-((1-(5-chloro-3-(5-fluoropyridin-3-yl)-4-oxo-3,4-dihydroquinazolin-2-yl)-3-methylbutyl)amino)pyrimidine-5-carbonitrile]",0.014 µM

# The remaining lines, values ahead:
row,IC50,SMILES
1,0.22 µM,"Cc1c(F)cncc1-n1c([C@@H](C)Nc2nc(N)nc(N)c2C#N)nc2cccc(Cl)c2c1=O (atropisomer, axis not shown) [Compound 114, (R)-2,4-diamino-6-((1-(5-chloro-3-(5-fluoro-4-methylpyridin-3-yl)-4-oxo-3,4-dihydroquinazolin-2-yl)ethyl)amino)pyrimidine-5-carbonitrile]"
2,0.001 µM,"CC[C@H](Nc1nc(N)nc(N)c1C#N)c1nc2cccc(Cl)c2c(=O)n1-c1cncc(F)c1C (atropisomer, axis not shown) [Compound 72, (S)-2,4-diamino-6-((1-(5-chloro-3-(5-fluoro-4-methylpyridin-3-yl)-4-oxo-3,4-dihydroquinazolin-2-yl)propyl)amino)pyrimidine-5-carbonitrile]"
3,0.004 µM,"Cc1c(F)cncc1-n1c([C@@H](C)Nc2nc(N)nc(N)c2C#N)nc2cccc(Cl)c2c1=O (atropisomer, axis not shown) [Compound 115, (R)-2,4-diamino-6-((1-(5-chloro-3-(5-fluoro-4-methylpyridin-3-yl)-4-oxo-3,4-dihydroquinazolin-2-yl)ethyl)amino)pyrimidine-5-carbonitrile]"
4,0.049 µM,"CC[C@H](Nc1nc(N)nc(N)c1C#N)c1nc2cccc(Cl)c2c(=O)n1-c1cncc(F)c1C (atropisomer, axis not shown) [Compound 71, (S)-2,4-diamino-6-((1-(5-chloro-3-(5-fluoro-4-methylpyridin-3-yl)-4-oxo-3,4-dihydroquinazolin-2-yl)propyl)amino)pyrimidine-5-carbonitrile]"
5,0.009 µM,"CC[C@@H](Nc1nc(N)nc(N)c1C#N)c1nc2c(F)ccc(Cl)c2c(=O)n1-c1cccnc1 [Compound 111, (R)-2,4-Diamino-6-((1-(5-chloro-8-fluoro-4-oxo-3-(pyridin-3-yl)-3,4-dihydroquinazolin-2-yl)propyl)amino)pyrimidine-5-carbonitrile]"
6,0.001 µM,"CC[C@H](Nc1nc(N)nc(N)c1C#N)c1nc2c(F)ccc(Br)c2c(=O)n1-c1cccnc1 [Compound 61, (S)-2,4-diamino-6-((1-(5-bromo-8-fluoro-4-oxo-3-(pyridin-3-yl)-3,4-dihydroquinazolin-2-yl)propyl)amino)pyrimidine-5-carbonitrile]"
7,0.06 µM,"Cc1c(F)cncc1-n1c([C@@H](Nc2nc(N)nc(N)c2C#N)C2CC2)nc2cccc(Cl)c2c1=O (atropisomer, axis not shown) [Compound 69, (S)-2,4-diamino-6-(((5-chloro-3-(5-fluoro-4-methylpyridin-3-yl)-4-oxo-3,4-dihydroquinazolin-2-yl)(cyclopropyl)methyl)amino)pyrimidine-5-carbonitrile]"
8,0.12 µM,"Cc1c(F)cncc1-n1c([C@H](C)Nc2nc(N)nc(N)c2C#N)nc2cccc(F)c2c1=O (atropisomer, axis not shown) [Compound 67, (S)-2,4-diamino-6-((1-(5-fluoro-3-(5-fluoro-4-methylpyridin-3-yl)-4-oxo-3,4-dihydroquinazolin-2-yl)ethyl)amino)pyrimidine-5-carbonitrile]"
9,0.62 µM,"C[C@@H](Nc1nc(N)nc(N)c1C#N)c1nc2c(F)ccc(Cl)c2c(=O)n1-c1cncc(F)c1 [Compound 113, (R)-2,4-Diamino-6-((1-(5-chloro-8-fluoro-3-(5-fluoropyridin-3-yl)-4-oxo-3,4-dihydroquinazolin-2-yl)ethyl)amino)pyrimidine-5-carbonitrile]"
10,0.095 µM,"C[C@H](Nc1nc(N)nc(N)c1Cl)c1nc2cccc(C#N)c2c(=O)n1-c1cccnc1 [Compound 63, (S)-2-(1-((2,6-diamino-5-chloropyrimidin-4-yl)amino)ethyl)-4-oxo-3-(pyridin-3-yl)-3,4-dihydroquinazoline-5-carbonitrile]"
11,0.003 µM,"Cc1c(F)cncc1-n1c([C@@H](Nc2nc(N)nc(N)c2C#N)C2CC2)nc2c(F)ccc(Cl)c2c1=O (atropisomer, axis not shown) [Compound 66, (S)-2,4-Diamino-6-(((5-chloro-8-fluoro-3-(5-fluoro-4-methylpyridin-3-yl)-4-oxo-3,4-dihydroquinazolin-2-yl)(cyclopropyl)methyl)amino)pyrimidine-5-carbonitrile]"
12,0.014 µM,"Cc1c(F)cncc1-n1c([C@H](C)Nc2nc(N)nc(N)c2C#N)nc2ccc(F)cc2c1=O (atropisomer, axis not shown) [Compound 76, (S)-2,4-diamino-6-((1-(6-fluoro-3-(5-fluoro-4-methylpyridin-3-yl)-4-oxo-3,4-dihydroquinazolin-2-yl)ethyl)amino)pyrimidine-5-carbonitrile]"

# From patent US9221795B2, “Phosphatidylinositol 3-kinase inhibitors” (Gilead Sciences, Inc., priority 2013, dated 2015)
